Test results: US20080167375A1, “TREATMENT OF CUTANEOUS NEUROGENIC INFLAMMATION” (Astion Pharma A/S, priority 2006, published 2008)
Like-named read-outs stand apart in the source and are kept apart here.

Key:
[1] = target: T1, Fatty acid amid hydrolase (FAAH) (Rattus norvegicus, UniProt P97612); details: reference compound of the assay; cited from earlier work
T1 construct: source is rat brain; tissue MDS Pharma Services; host or cells: rat brain
T1 sequence (P97612 1-579): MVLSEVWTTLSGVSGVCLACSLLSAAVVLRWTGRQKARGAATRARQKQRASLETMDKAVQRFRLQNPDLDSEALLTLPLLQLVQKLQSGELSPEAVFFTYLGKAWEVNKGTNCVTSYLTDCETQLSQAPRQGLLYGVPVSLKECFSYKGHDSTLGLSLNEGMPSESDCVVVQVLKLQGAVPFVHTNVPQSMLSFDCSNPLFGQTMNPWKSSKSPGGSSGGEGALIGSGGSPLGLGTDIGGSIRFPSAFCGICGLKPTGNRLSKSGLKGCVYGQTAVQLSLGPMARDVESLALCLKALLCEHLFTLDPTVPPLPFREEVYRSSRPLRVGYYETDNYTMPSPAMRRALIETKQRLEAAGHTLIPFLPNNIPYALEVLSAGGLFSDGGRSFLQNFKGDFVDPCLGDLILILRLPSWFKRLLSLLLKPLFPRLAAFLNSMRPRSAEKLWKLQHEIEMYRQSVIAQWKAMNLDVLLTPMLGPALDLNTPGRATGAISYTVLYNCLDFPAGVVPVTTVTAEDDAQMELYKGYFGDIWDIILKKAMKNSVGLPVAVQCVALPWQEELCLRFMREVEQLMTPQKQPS

human PPARα = target: T2, human PPARα (Homo sapiens, UniProt Q07869); test: PPARα agonism, Gal4-luciferase transactivation assay in HEK 293-T; type: cell-based
T2 construct: host or cells: HEK 293-T
T2 sequence (Q07869 239-466 limits assumed): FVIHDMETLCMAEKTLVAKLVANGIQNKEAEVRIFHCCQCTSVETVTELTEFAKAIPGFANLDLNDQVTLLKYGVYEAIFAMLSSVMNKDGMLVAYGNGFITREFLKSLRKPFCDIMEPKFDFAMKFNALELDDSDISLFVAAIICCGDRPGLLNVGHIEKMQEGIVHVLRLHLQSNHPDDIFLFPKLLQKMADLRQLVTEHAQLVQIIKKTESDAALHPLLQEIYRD
Experimental: Effect of GMCY and glyceryl fatty acid esters of higher acid chain length on PPARα agonism.
Agonism of PPARα can be tested by commercially available assays such as by Indigo Biosciences). The test substance is dissolved in DMSO and serial dilutions in DMSO were prepared. A plasmid was formed by fusing a ligand-binding domain of human PPARα, to a DAN-binding domain of the yest transcription factor Gal4 under the control of the SV40 promoter. This plasmid also encoded the UAS-firefly luciferase reporter under the control of the Gal4 DNA response element. Cell-cultures and transactivation assays were HEK 293-T fibroblast (ATCC Manassas, Va.) which were cultured in high-glucose Dulbecco's Minimal Essential Medium (DMEM) supplemented with 10% fetal bovine serum (FBS, Sigma), 0.2 mg/ml streptomycin and 200 U/ml penicillin (Gibco Grand Island, N.Y.). Cells were transfected with plasmid DNA using Lipofectamine reagent (In Vitrogen, Carlsbad, Calif.) using the manufacturers recommended procedures. Sixteen hours after treatment, the cells were lysed with passive lysis buffer (Promega, Madison, Wis.) and a Tecan GeniousPro (Research Triangle Park, N.C.). The fold induction of normalised luciferase activity was calculated relative to DMSO, DMSO-treated cells.

[2] = tested on: TNF-α release in LPS-activated human peripheral blood mononuclear cells (PBMC); test: LPS-induced TNF-α release from human PBMC; type: cell-based; details: for TNF-α: LPS-stimulated PBMC
Text: (§1) The ability of GMCY to inhibit release of pro-inflammatory cytokines (TNF-α and IL-1) in LPS-activated human peripheral blood mononuclear cells (PBMC) has been investigated.

skin = test: Skin tolerability of dermatological compositions; details: higher doses
Text: Therefore, in current interesting embodiments of the invention, the dermatological composition comprises for reasons of safety and convenience a maximal dose of GMCY or an analogue thereof in an amount of 5% of GMCY or an analogue thereof by weight of the dermatological composition, such as in a maximum doses of 4.5%, 4%, 3.5%, 3%, 2.5%, 2%, 1.5%, 1.25 1%, 0.8, 0.6 and 0.5% of GMCY or an analogue thereof by weight of the dermatological composition.

[3] = tested on: capsaicin-induced neurogenic inflammation (ear oedema); test: Capsaicin-induced ear oedema (neurogenic inflammation) model in mice; type: in vivo, NMRI mice; details: for % relative ear oedema (2. app): co-administered with capsaicin 250 μg/ear, 15 min after second capsaicin application; for % inhibition of ear oedema: after second capsaicin application, vs vehicle
Text: Effect on capsaicin-induced neurogenic inflammation in mice and binding to the TRP vanillioid receptor.
The mechanism of cutaneous neurogenic inflammation is connected with the release of neuropeptides from sensory nerve endings. The neuropeptide substance P is believed to play a major role in inducing an inflammatory response by affecting different inflammatory cells.

[4] = target: T3, Protein tyrosine kinase enzyme Syk (Homo sapiens, UniProt P43405); test: Protein tyrosine kinase Syk inhibition (MDS Pharma, assay no 174200); type: biochemical
T3 construct: MDS Pharma assay no 174200

vanilloid receptors = target: T4, vanilloid receptors (Rattus norvegicus, UniProt O35433); test: In vitro radioligand binding assay for vanilloid receptors (MDS Pharma Services); details: rat vas deferens, field stimulated
T4 construct: The tissue used in this assay was rat vas deferens, field stimulated; tissue MDS Pharma Services; host or cells: rat vas deferens
T4 sequence (O35433 whole entry): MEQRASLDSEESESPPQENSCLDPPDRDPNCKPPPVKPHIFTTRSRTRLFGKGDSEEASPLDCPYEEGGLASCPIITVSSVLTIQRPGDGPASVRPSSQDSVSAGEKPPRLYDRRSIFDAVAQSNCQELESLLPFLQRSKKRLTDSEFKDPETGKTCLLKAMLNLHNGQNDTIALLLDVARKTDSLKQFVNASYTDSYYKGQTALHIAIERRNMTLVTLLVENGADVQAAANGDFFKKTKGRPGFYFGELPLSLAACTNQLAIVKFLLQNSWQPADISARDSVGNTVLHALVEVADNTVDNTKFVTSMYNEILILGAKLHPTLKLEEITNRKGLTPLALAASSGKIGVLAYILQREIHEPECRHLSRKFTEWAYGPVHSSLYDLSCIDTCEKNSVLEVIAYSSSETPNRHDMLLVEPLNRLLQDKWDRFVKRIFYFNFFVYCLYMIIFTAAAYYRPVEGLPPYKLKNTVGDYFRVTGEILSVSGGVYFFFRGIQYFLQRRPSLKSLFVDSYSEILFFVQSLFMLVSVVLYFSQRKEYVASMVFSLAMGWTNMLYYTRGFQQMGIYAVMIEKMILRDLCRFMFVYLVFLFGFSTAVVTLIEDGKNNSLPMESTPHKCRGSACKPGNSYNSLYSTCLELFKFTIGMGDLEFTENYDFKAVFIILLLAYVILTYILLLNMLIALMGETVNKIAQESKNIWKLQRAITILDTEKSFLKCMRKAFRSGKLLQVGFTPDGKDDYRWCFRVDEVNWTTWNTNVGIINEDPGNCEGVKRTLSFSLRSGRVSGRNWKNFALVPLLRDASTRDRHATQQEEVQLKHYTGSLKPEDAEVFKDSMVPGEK
Text: Literature reference to this assay is Wardle, K A et al. J PharmPharmacol. 48:285, 1996.

[5] = tested on: IL-6 release in LPS-activated human peripheral blood mononuclear cells (PBMC); test: LPS-induced IL-6 release from human PBMC; type: cell-based; details: physiologically relevant concentrations
acute inflammation = details: Example 111 of WO 2004/000333; cited from earlier work
[6] = tested on: IL-1β release in LPS-activated human peripheral blood mononuclear cells (PBMC); test: LPS-induced IL-1β release from human PBMC; type: cell-based; design: IL-1β: unit not given here; details: for IL-1β: LPS-stimulated PBMC
Text: as §1

[7] = target: T1, Fatty acid amid hydrolase (FAAH); test: FAAH in vitro enzyme assay (MDS Pharma Services); type: biochemical; details: rat brain source; substrate Anandamide+[3H]Anandamide
Experimental: The assay is conducted using the following test conditions; source is rat brain, substrate is Anandamide+[3H]Anandamide, the reation is[3H]Anandamide→[3H]Ethanolamine+Arachidonic acid and the quantitation is performed on [3H]Ethanolamine using a test concentration usually of about 10 μM.

[8] = physiologically relevant concentrations

## CCCCCCCC/C=C\CCCCCCCC(=O)C(F)(F)F [Oleyl Trifluromethyl Ketone]
[1]
  IC50: 0.029 µM

## CCCCCCCC(=O)OCC(O)CO (racemic) [GMCY, 1-glyceryl monocaprylate]
Human PPARα
  PPARα agonism: did not act as an agonist
[2]; 1 μM
  TNF-α: 230.2
[2]; 10 μM
  TNF-α: 105
[2]; 100 μM
  TNF-α: 73.7
[2]; 1000 μM
  TNF-α: 38.5
[2]
  TNF-α: 6.9
[2]; [8]
  inhibition of LPS induced release of TNF-α: dose dependently inhibit
skin
  skin burning / irritation: causes burning or weak irritation in higher doses
[3]; 100 μg/ear topical
  % relative ear oedema (2. app): 15.8%
[3]; 100 μg/ear
  % inhibition of ear oedema: 32.6%
[3]; 450 μg/ear topical
  % relative ear oedema (2. app): 15.3%
[3]; 450 μg/ear
  % inhibition of ear oedema: 34.4%
[3]; 2000 μg/ear topical
  % relative ear oedema (2. app): 15.0%
[3]; 2000 μg/ear
  % inhibition of ear oedema: 36.0%
[3]; after repeated application of capsaicin, treated groups overall
  reduction of inflammation in comparison to the vehicle control: about 35%
[4]
  IC50: 61 µM
Vanilloid receptors
  binding to the vanilloid receptors: does not bind
[5]
  inhibition of LPS induced release of IL-6: dose dependently inhibit
Acute inflammation
  effect on acute inflammation: any effect could not be proven statistically
[6]; 1 μM
  IL-1β: 459.2
[6]; 10 μM
  IL-1β: 320.9
[6]; 100 μM
  IL-1β: 238.6
[6]; 1000 μM
  IL-1β: 124.5
[6]; 10000 μM
  IL-1β: 8.2
[6]; [8]
  inhibition of LPS induced release of IL-1β: dose dependently inhibit
[7]
  IC50: 53 µM

## C[C@@H]1C[C@H]2[C@@H]3CCC4=CC(=O)C=C[C@]4(C)[C@@]3(F)[C@@H](O)C[C@]2(C)[C@@]1(O)C(=O)CO [Dexamethasone, reference compound]
[2]; Dexamethasone control, concentration not given
  TNF-α: 87

## CCCCCCCCCC(=O)OCC(O)CO (centres unmarked) [1-glyceryl monocaprate, reference compound]
[3]; all treated groups (2000, 450, 100 μg/ear)
  inhibitory effect on neurogenic inflammation (ear oedema vs vehicle control): no inhibitory effect
